Tested on: eNOS promoter
Assay: Activation of eNOS transcription (eNOS promoter-luciferase reporter gene assay)
Assay type: cell-based, human
Settings: 18 h incubation; for EC50: EC50 of transcription induction ratio vs compound concentration, determined graphically, human endothelial cell line stably transfected with eNOS promoter-luciferase construct; for maximal fold induction / TIR(max): maximum transcription induction ratio (luciferase activity with compound / solvent alone), human endothelial cell line with eNOS promoter-luciferase construct; for maximal fold induction: read-out: TIR(max)
Description: Measurement of Activation of eNOS Transcription
Activation of eNOS transcription was measured as described in detail in Li et al. “Activation of protein kinase C alpha and/or epsilon enhances transcription of the human endothelial nitric oxide synthase gene”, Mol. Pharmacol. 1998; 53: 630-637.
Briefly, a 3.5 kB long fragment 5′ of the starting codon of the eNOS gene was cloned, sequenced and cloned in firefly luciferase expression plasmids to monitor activation of the eNOS promoter by reporter gene activity. A human endothelial cell line stable transfected and expressing this promoter-reporter construct was used for compound testing. Cells were incubated for 18 h with compounds.
All compounds were dissolved in sterile DMSO. A final concentration of 0.5% DMSO in complete medium was allowed. Induction of reporter gene expression in these cells was measured using a standard luciferase assay system (Promega, Cat. No E150) according to the manufacturer's instructions. Luciferase induction in cells incubated with compounds were compared to those incubated with solvent alone. The ratio of both activities (transcription induction ratio, TIR) was plotted as a function of compound concentration. Typically, TIR values started at low concentrations at a ratio of 1, indicating no compound effect, and extended up to a maximum TIR value TIR(max) which indicates the increase of the eNOS transcription. EC50 values of transcription induction ratios as a function of compound concentration were determined graphically.

CNc1nc(C)ccc1C(=O)NC1CCCc2ccccc2C1 (single isomer, unassigned) [Compound 123, 6-METHYL-2-METHYLAMINO-N-(6,7,8,9-TETRAHYDRO-5H-BENZOCYCLOHEPTEN-6-YL)-NICOTINAMIDE]
EC50: 260 nM
maximal fold induction: 2.9

CS(=O)(=O)c1cccc(C(=O)NC2CCCc3ccccc3C2)c1 (stereo not drawn) [Compound 139, 3-METHANESULFONYL-N-(6,7,8,9-TETRAHYDRO-5H-BENZOCYCLOHEPTEN-6-YL)-BENZAMIDE]
EC50: 1900 nM
maximal fold induction: 3

O=C(NC1CCCc2ccccc2C1)c1cccc(N2CCCCC2)c1 (stereo not drawn) [Compound 106, 3-PIPERIDIN-1-YL-N-(6,7,8,9-TETRAHYDRO-5H-BENZOCYCLOHEPTEN-6-YL)-BENZAMIDE]
EC50: 4800 nM
maximal fold induction: 2.5

Nc1ncccc1C(=O)NC1CCCc2ccccc2C1 (single isomer, unassigned) [Compound 24, 2-AMINO-N-(6,7,8,9-TETRAHYDRO-5H-BENZOCYCLOHEPTEN-6-YL)-NICOTINAMIDE]
EC50: 30 nM
maximal fold induction: 3.1

O=C(N[C@H]1CCCc2ccccc2C1)c1ccc(N2CCCC2)nc1 [Compound 118, (S)-6-PYRROLIDIN-1-YL-N-(6,7,8,9-TETRAHYDRO-5H-BENZOCYCLOHEPTEN-6-YL)-NICOTINAMIDE]
EC50: 140 nM
maximal fold induction: 3

Cc1ccc(C(=O)NC2CCCc3ccccc3C2)c(C)n1 (single isomer, unassigned) [Compound 112, 2,6-DIMETHYL-N-(6,7,8,9-TETRAHYDRO-5H-BENZOCYCLOHEPTEN-6-YL)-NICOTINAMIDE]
EC50: 40 nM
maximal fold induction: 3.1

O=C(NC1CCCc2ccccc2C1)c1ccc(Cl)nc1 (stereo not drawn) [Compound 10, 6-CHLORO-N-(6,7,8,9-TETRAHYDRO-5H-BENZOCYCLOHEPTEN-6-YL)-NICOTINAMIDE]
EC50: 256 nM
maximal fold induction: 3

O=C(NC1CCCc2ccccc2C1)c1ccc(F)cc1Cl (stereo not drawn) [Compound 4, 2-CHLORO-4-FLUORO-N-(6,7,8,9-TETRAHYDRO-5H-BENZOCYCLOHEPTEN-6-YL)-BENZAMIDE]
EC50: < 80 nM
maximal fold induction: 2.8

Cc1cc(C(=O)NC2CCCc3ccccc3C2)c(C)[nH]1 (single isomer, unassigned; (+)) [Compound 49, (+)-2,5-DIMETHYL-1H-PYRROLE-3-CARBOXYLIC ACID (6,7,8,9-TETRAHYDRO-5H-BENZOCYCLOHEPTEN-6-YL)-AMIDE]
EC50: 40 nM
maximal fold induction: 3

Cc1nc(N)c(C(=O)NC2CCCc3ccccc3C2)nc1C (stereo not drawn) [Compound 72, 3-AMINO-5,6-DIMETHYL-PYRAZINE-2-CARBOXYLIC ACID (6,7,8,9-TETRAHYDRO-5H-BENZOCYCLOHEPTEN-6-YL)-AMIDE]
EC50: 71 nM
maximal fold induction: 3.1

Nc1ccnc(C(=O)NC2CCCc3ccccc3C2)c1 (stereo not drawn) [Compound 146, 4-AMINO-PYRIDINE-2-CARBOXYLIC ACID (6,7,8,9-TETRAHYDRO-5H-BENZOCYCLOHEPTEN-6-YL)-AMIDE]
EC50: 2400 nM
maximal fold induction: 2.9

O=C(NC1CCCc2ccccc2C1)c1cccc2snnc12 (stereo not drawn) [Compound 22, BENZO[1,2,3]THIADIAZOLE-4-CARBOXYLIC ACID-N-(6,7,8,9-TETRAHYDRO-5H-BENZOCYCLOHEPTEN-6-YL)-AMIDE]
EC50: 83 nM
maximal fold induction: 3.1

O=C(NC1CCCc2ccccc2C1)c1cnc2c(c1)CCCC2 (stereo not drawn) [Compound 134, 5,6,7,8-TETRAHYDRO-QUINOLINE-3-CARBOXYLIC ACID (6,7,8,9-TETRAHYDRO-5H-BENZOCYCLOHEPTEN-6-YL)-AMIDE]
EC50: 3000 nM
maximal fold induction: 3.5

Cc1ccc(C(=O)NC2CCCc3ccccc3C2)c(O)n1 (stereo not drawn) [Compound 11, 2-HYDROXY-6-METHYL-N-(6,7,8,9-TETRAHYDRO-5H-BENZOCYCLOHEPTEN-6-YL)-NICOTINAMIDE]
EC50: 2100 nM
maximal fold induction: 2

Cc1ccc(C(=O)NC2CCCc3ccccc3C2)c(Cl)n1 (stereo not drawn) [Compound 16, 2-CHLORO-6-METHYL-N-(6,7,8,9-TETRAHYDRO-5H-BENZOCYCLOHEPTEN-6-YL)-NICOTINAMIDE]
EC50: 38 nM
maximal fold induction: 2.9

O=C(NC1CCCc2ccccc2C1)c1ccc(N2CCOCC2)nc1 (stereo not drawn) [Compound 101, 6-MORPHOLIN-4-YL-N-(6,7,8,9-TETRAHYDRO-5H-BENZOCYCLOHEPTEN-6-YL)-NICOTINAMIDE]
EC50: 6000 nM
maximal fold induction: 3.1

N#Cc1ccc(C(=O)NC2CCCc3ccccc3C2)cn1 (stereo not drawn) [Compound 21, 6-CYANO-N-(6,7,8,9-TETRAHYDRO-5H-BENZOCYCLOHEPTEN-6-YL)-NICOTINAMIDE]
EC50: 8200 nM
maximal fold induction: 2.6

Cc1ccc(S(C)(=O)=O)cc1C(=O)NC1CCCc2ccccc2C1 (stereo not drawn) [Compound 140, 5-METHANESULFONYL-2-METHYL-N-(6,7,8,9-TETRAHYDRO-5H-BENZOCYCLOHEPTEN-6-YL)-BENZAMIDE]
EC50: 1300 nM
maximal fold induction: 3

O=C(NC1CCCc2ccccc2C1)c1cnn(-c2ccc(Cl)cc2)c1C(F)(F)F (stereo not drawn) [Compound 14, 1-(4-CHLORO-PHENYL)-5-TRIFLUOROMETHYL-1H-PYRAZOLE-4-CARBOXYLIC ACID (6,7,8,9-TETRAHYDRO-5H-BENZOCYCLOHEPTEN-6-YL)-AMIDE]
EC50: 1200 nM
maximal fold induction: 1.7

O=C(NC1CCCc2ccccc2C1)c1ccc(F)cc1F (stereo not drawn) [Compound 6, 2,4-DIFLUORO-N-(6,7,8,9-TETRAHYDRO-5H-BENZOCYCLOHEPTEN-6-YL)-BENZAMIDE]
EC50: < 80 nM
maximal fold induction: 3

Nc1c(C(=O)NC2CCCc3ccccc3C2)cnn1-c1ccccc1 (stereo not drawn) [Compound 61, 5-AMINO-1-PHENYL-1H-PYRAZOLE-4-CARBOXYLIC ACID (6,7,8,9-TETRAHYDRO-5H-BENZOCYCLOHEPTEN-6-YL)-AMIDE]
EC50: 2300 nM
maximal fold induction: 3.4

O=C(NC1CCCc2ccccc2C1)c1nc(NCc2ccccc2)ccc1Cl (stereo not drawn) [143 B]
EC50: 28000 nM
TIR(max): 2.5

O=C(NC1CCCc2ccccc2C1)c1cnn(-c2ccccc2)c1C(F)(F)F (single isomer, unassigned) [Compound 34, 1-PHENYL-5-TRIFLUOROMETHYL-1H-PYRAZOLE-4-CARBOXYLIC ACID (6,7,8,9-TETRAHYDRO-5H-BENZOCYCLOHEPTEN-6-YL)-AMIDE]
EC50: 60 nM
maximal fold induction: 2.8

CNc1cc(C(=O)NC2CCCc3ccccc3C2)ccc1C (stereo not drawn) [Compound 135, 4-METHYL-3-METHYLAMINO-N-(6,7,8,9-TETRAHYDRO-5H-BENZOCYCLOHEPTEN-6-YL)-BENZAMIDE]
EC50: 589 nM
maximal fold induction: 3

Cc1cnc(C(=O)N[C@H]2CCCc3ccccc3C2)c(N)n1 [Compound 114, (S)-3-AMINO-5-METHYL-PYRAZINE-2-CARBOXYLIC ACID (6,7,8,9-TETRARYDRO-5H-BENZOCYCLOHEPTEN-6-YL)-AMIDE]
EC50: 30 nM
TIR(max): 2.9

Nc1nc(Cl)ccc1C(=O)N[C@H]1CCCc2ccccc2C1 [Compound 128, (S)-2-AMINO-6-CHLORO-N-(6,7,8,9-TETRAHYDRO-5H-BENZOCYCLOHEPTEN-6-YL)-NICOTINAMIDE]
EC50: 2 nM
maximal fold induction: 3.1

Nc1nccnc1C(=O)NC1CCCc2ccccc2C1 (single isomer, unassigned) [Compound 45, 3-AMINO-PYRAZINE-2-CARBOXYLIC ACID (6,7,8,9-TETRAHYDRO-5H-BENZOCYCLOHEPTEN-6-YL)-AMIDE]
EC50: 60 nM
maximal fold induction: 2.9

CNc1nc(C)ccc1C(=O)NC1CCCc2ccccc2C1 (single isomer, unassigned) [Compound 124, 6-METHYL-2-METHYLAMINO-N-(6,7,8,9-TETRAHYDRO-5H-BENZOCYCLOHEPTEN-6-YL)-NICOTINAMIDE]
EC50: 6 nM
TIR(max): 2.9

O=C(NC1CCCc2ccccc2C1)c1cn2ccccc2n1 (stereo not drawn) [Compound 85, IMIDAZO[1,2-A]PYRIDINE-2-CARBOXYLIC ACID (6,7,8,9-TETRAHYDRO-5H-BENZOCYCLOHEPTEN-6-YL)-AMIDE]
EC50: 15000 nM
maximal fold induction: 3

CNc1cncc(C(=O)N[C@H]2CCCc3ccccc3C2)n1 [Compound 116, (S)-6-METHYLAMINO-PYRAZINE-2-CARBOXYLIC ACID (6,7,8,9-TETRAHYDRO-5H-BENZOCYCLOHEPTEN-6-YL)-AMIDE]
EC50: 150 nM
maximal fold induction: 2.9

CS(=O)(=O)Nc1cc(C(=O)NC2CCCc3ccccc3C2)ccc1Cl (stereo not drawn) [Compound 98, 4-CHLORO-3-METHANESULFONYLAMIINO-N-(6,7,8,9-TETRAHYDRO-5H-BENZOCYCLOHEPTEN-6-YL)-BENZAMIDE]
EC50: 574 nM
TIR(max): 2.6

Cc1c(C(=O)NC2CCCc3ccccc3C2)cnn1-c1ccccc1 (stereo not drawn) [Compound 30, 5-METHYL-1-PHENYL-1H-PYRAZOLE-4-CARBOXYLIC ACID (6,7,8,9-TETRARYDRO-5H-BENZOCYCLOHEPTEN-6-YL)-AMIDE]
EC50: 20 nM
TIR(max): 3.5

Cc1c(NS(C)(=O)=O)cccc1C(=O)NC1CCCc2ccccc2C1 (stereo not drawn) [Compound 99, 3-METHANESULFONYLAMINO-2-METHYL-N-(6,7,8,9-TETRAHYDRO-5H-BENZOCYCLOHEPTEN-6-YL)-BENZAMIDE]
EC50: 2800 nM
maximal fold induction: 2.5

Reference: US7709478B2, “Acylated 6,7,8,9-tetrahydro-5H-benzocycloheptenyl amines and their use as pharmaceutical agents” (sanofi-aventis Deutschland GmbH, priority 2001, dated 2010)
